Experimental data as given in ChEMBL document CHEMBL1125650, “Relationships between the structure of taxol analogues and their antimitotic activity” (J Med Chem, 1991).
In brackets after ≈: the same amount, converted by molar mass.

Columns and labels:
P388 = assay: The concentration required to 50% inhibition of the P388 leukemic cell proliferation; type: functional, cell-based; conditions: Mus musculus
[1] = Ratio of the concentration of compound leading to a 50% inhibition of the rate of pig brain microtubule disassembly to that of compound 13a was determined; type: functional
Sus scrofa = species on record: Sus scrofa; assay: Ratio of the concentration leading to a 50% inhibition of the rate of pig brain microtubule disassembly to that of taxol (0.4 uM) was determined; type: functional
[2] = Cytotoxicity was measured as ratio of its IC50 value to that of compound 13a; type: functional

CC(=O)O[C@H]1C(=O)[C@@]2(C)[C@H]([C@H](OC(=O)c3ccccc3)[C@]3(O)C[C@H](OC(=O)[C@H](O)[C@@H](NC(=O)c4ccccc4)c4ccccc4)C(C)=C1C3(C)C)[C@]1(OC(C)=O)CO[C@@H]1C[C@@H]2O [PACLITAXEL]
IC50 (P388): 0.27 µg/mL (≈ 0.316 µM)
Ratio [1]: 2

CC(=O)O[C@H]1C(=O)[C@@]2(C)[C@H]([C@H](OC(=O)c3ccccc3)[C@]3(O)C[C@H](OC(=O)[C@H](NC(=O)c4ccccc4)[C@@H](O)c4ccccc4)C(C)=C1C3(C)C)[C@]1(OC(C)=O)CO[C@@H]1C[C@@H]2O
IC50 (P388): 6 µg/mL (≈ 7.03 µM)
Ratio [1]: 20
Ratio (Sus scrofa): 10
Ratio [2]: 46

CC(=O)O[C@@]12CO[C@@H]1C[C@H](OC(=O)CN)[C@@]1(C)C(=O)[C@H](OC(=O)CN)C3=C(C)[C@@H](OC(=O)C(O)C(NC(=O)OC(C)(C)C)c4ccccc4)C[C@@](O)([C@@H](OC(=O)c4ccccc4)[C@H]21)C3(C)C (stereo not given in full)
IC50 (P388): 0.19 µg/mL (≈ 0.206 µM)
Ratio [1]: 1.4
Ratio (Sus scrofa): 1.2
Ratio [2]: 1.5

CC(=O)O[C@H]1C(=O)[C@@]2(C)[C@H]([C@H](OC(=O)c3ccccc3)[C@]3(O)C[C@H](OC(=O)[C@@H](O)[C@H](NC(=O)c4ccccc4)c4ccccc4)C(C)=C1C3(C)C)[C@]1(OC(C)=O)CO[C@@H]1C[C@@H]2O
IC50 (P388): 7 µg/mL (≈ 8.2 µM)
Ratio [1]: 9
Ratio (Sus scrofa): 4.5
Ratio [2]: 54

CC(=O)O[C@@]12CO[C@@H]1C[C@H](O)[C@@]1(C)C(=O)[C@H](O)C3=C(C)[C@@H](OC(=O)C(NC(=O)OC(C)(C)C)C(O)c4ccccc4)C[C@@](O)([C@@H](OC(=O)c4ccccc4)[C@H]21)C3(C)C (stereo not given in full)
IC50 (P388): 4 µg/mL (≈ 4.95 µM)
Ratio [1]: 20
Ratio (Sus scrofa): 10
Ratio [2]: 31

CC(=O)O[C@@]12CO[C@@H]1C[C@H](O)[C@@]1(C)C(=O)[C@H](O)C3=C(C)[C@@H](OC(=O)[C@H](O)[C@@H](NC(=O)OC(C)(C)C)c4ccccc4)C[C@@](O)([C@@H](OC(=O)c4ccccc4)[C@H]21)C3(C)C.O.O.O [DOCETAXEL]
IC50 (P388): 0.13 µg/mL
Ratio [1]: 1
Ratio (Sus scrofa): 0.5
Ratio [2]: 1

CC(=O)O[C@H]1C(=O)[C@@]2(C)[C@H]([C@H](OC(=O)c3ccccc3)[C@]3(O)C[C@H](OC(=O)[C@H](O)[C@@H](NC(=O)OC(C)(C)C)c4ccccc4)C(C)=C1C3(C)C)[C@]1(OC(C)=O)CO[C@@H]1C[C@@H]2O
IC50 (P388): 0.17 µg/mL (≈ 0.2 µM)
Ratio [1]: 1
Ratio (Sus scrofa): 0.5
Ratio [2]: 1.3

CC(=O)O[C@@]12CO[C@@H]1C[C@H](O)[C@@]1(C)C(=O)[C@H](O)C3=C(C)[C@@H](OC(=O)C(O)C(NC(=O)c4ccc(S(=O)(=O)O)cc4)c4ccccc4)C[C@@](O)([C@@H](OC(=O)c4ccccc4)[C@H]21)C3(C)C (stereo not given in full)
IC50 (P388): > 4 µg/mL
Ratio [1]: 11
Ratio (Sus scrofa): 5.5
Ratio [2]: >31

CC(=O)O[C@@]12CO[C@@H]1C[C@H](OC(=O)C(N)Cc1ccccc1)[C@@]1(C)C(=O)[C@H](O)C3=C(C)[C@@H](OC(=O)C(O)C(NC(=O)OC(C)(C)C)c4ccccc4)C[C@@](O)([C@@H](OC(=O)c4ccccc4)[C@H]21)C3(C)C (stereo not given in full)
IC50 (P388): 0.12 µg/mL (≈ 0.126 µM)
Ratio [1]: 2
Ratio (Sus scrofa): 1
Ratio [2]: 1

CC(=O)O[C@@]12CO[C@@H]1C[C@H](O)[C@@]1(C)C(=O)[C@H](O)C3=C(C)[C@@H](OC(=O)[C@@H](O)[C@H](NC(=O)OC(C)(C)C)c4ccccc4)C[C@@](O)([C@@H](OC(=O)c4ccccc4)[C@H]21)C3(C)C
IC50 (P388): > 10 µg/mL
Ratio [1]: 60
Ratio (Sus scrofa): 30
Ratio [2]: >77

CC(=O)O[C@H]1C(=O)[C@@]2(C)[C@H]([C@H](OC(=O)c3ccccc3)[C@]3(O)C[C@H](OC(=O)C(NC(=O)OC(C)(C)C)C(O)c4ccccc4)C(C)=C1C3(C)C)[C@]1(OC(C)=O)CO[C@@H]1C[C@@H]2O (stereo in doubt; 16d)
Ratio (Sus scrofa): 108

CC(=O)O[C@H]1C(=O)[C@]2(C)[C@@H](OC(=O)CCCC(=O)O)C[C@H]3OC[C@@]3(OC(C)=O)[C@H]2[C@H](OC(=O)c2ccccc2)[C@]2(O)C[C@H](OC(=O)C(O)C(NC(=O)c3ccccc3)c3ccccc3)C(C)=C1C2(C)C (stereo not given in full)
Ratio (Sus scrofa): 1
